Test results published in patent publication US4250183A, “N-(Substituted amino)alkanoyl-aminoalkanoic acids and salts, their use and their compositions” (BYK Gulden Lomberg Chemische Fabrik GmbH, priority 1977, dated 1981).

How the values were obtained:
in vivo = details: mouse, ip
Experimental: (§7) The animals (5 animals per dose) are given food and water ad lib. Different dosages of the substances are administered intraperitoneally. The duration of observation is 14 days.

pancreatic secretion = assay: Influence on the pancreatic secretion of the narcotized rat after intraduodenal application; assay type: in vivo, rat (male Sprague-Dawley); details: Rattus norvegicus, 0.5 h, read-out: Pancreatic Secretion ED50 (dose which brings about an increase in the pancreatic secretion by a maximum of 50%)
Excerpt: (§1) Influence on the Pancreatic and Bile Secretion of the Narcotized Rat Carrying out the Test
(§2) Male Sprague-Dawley rats (250 to 300 g body weight) are narcotized with 1.2 g/kg urethane i.m. Then the abdominal cavity is opened medially, the Ductus choledochus ligatured shortly above its entry into the duodenum and also near the liver joint, and both sections are catheterized towards the liver.
(§3) As in the case of the rat all pancreatic ducts lead into the center section of the Ductus choledochus; it is thus possible in this way to derive separately the pancreatic secreta from the distal (ligatured) section and the bile from the proximal section of the Ductus choledochus.
(§4) The separated quantities of pancreatic juice and bile juice are measured at intervals of 30 minutes during the period from before 2 hours to 3 hours after the intraduodenal […] administration of the compounds to be tested (volume of liquid administered 5 ml/kg).
(§5) The body temperature of the animals is maintained at from 36° to 38° C. by means of electric blankets and radiation; the monitoring of the temperature is carried out rectally.
(§6) The liquid volumes of the 30-minute fractions after the administration of the product are related in each case to the quantity of bile or pancreatic juice secreted prior to the application of the substance (=100%, mean of the two last measurements). The maximum percentage increase of the pancreatic or bile secretion is plotted against the dose and, from this, the ED50 is determined by interpolation.

[1] = as above; assay type: in vivo, rat (male Sprague-Dawley); details: in vivo; Table I; LD50 mouse i.p. / ED50 pancreatic secretion rat i.d.; read-out: TQ (LD50/ED50), pancreatic secretion
Excerpt: as §1, §2, §3, §4, §5, §6

[2] = Influence on the bile secretion (choleresis) of the narcotized rat after intraduodenal application; assay type: in vivo, rat (male Sprague-Dawley); details: in vivo; Table II; LD50 mouse i.p. / ED50 bile secretion rat i.d.; read-out: TQ (LD50/ED50), bile secretion
Excerpt: as §1, §2, §3, §4, §5, §6

bile secretion = assay: as above; assay type: in vivo, rat (male Sprague-Dawley); details: Rattus norvegicus, 0.5 h, read-out: Bile Secretion ED50 (dose which brings about an increase in the bile secretion by a maximum of 50%)
Excerpt: as §1, §2, §3, §4, §5, §6

female NMRI mice = assay: Determination of the toxicity, lethal effect on the mouse after intraperitoneal application; details: Table II, i.p., 14 days observation;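 also: mice received several intraperitoneal dose levels, five animals per level, and were followed for 14 days to estimate the lethal dose for half the animals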
Experimental: as §7

| SMILES | LD50 at 336 h (in vivo) | ED50 (pancreatic secretion) | selectivity ratio [1] | selectivity ratio [2] | ED50 (bile secretion) | Toxicity LD50 (female NMRI mice) |
| --- | --- | --- | --- | --- | --- | --- |
| Cc1cccc(C)c1N(CCCC(=O)N(C)CC(=O)O)C(=O)c1ccc(Cl)cc1 [Serial No. 2, N-[N-(p-chlorobenzoyl)-4-(2,6-dimethylanilino)butyryl]sarcosine] | 700 mg/kg | 10 mg/kg | 70 | – | – | – |
| COc1ccc(N(CC(=O)N(C)CC(=O)O)C(=O)c2ccc(Cl)cc2)cc1 [Serial No. 3, N-[N-(p-chlorobenzoyl)-2-(p-anisidino)acetyl]sarcosine] | > 1000 mg/kg | 15 mg/kg | > 67 | – | – | – |
| COc1ccc(N(CC(=O)NCC(=O)O)C(=O)c2ccc(Cl)cc2)cc1 [Serial No. 4, N-[N-(p-chlorobenzoyl)-2-(p-anisidino)acetyl]glycine] | > 1000 mg/kg | 15 mg/kg | > 67 | – | – | – |
| COc1ccc(N(CC(=O)NCCC(=O)O)C(=O)c2ccc(Cl)cc2)cc1 [Serial No. 5, N-[N-(p-chlorobenzoyl)-2-(p-anisidino)acetyl]-3-aminopropionic acid] | 1300 mg/kg | 25 mg/kg | 52 | – | – | – |
| Cc1cccc(C)c1N(CC(=O)NCC(=O)O)C(=O)c1ccc(Cl)cc1 [Serial No. 6, N-[N-(p-chlorobenzoyl)-2-(2,6-dimethylanilino)acetyl]glycine] | 400 mg/kg | ~5 mg/kg | ~80 | – | – | – |
| Cc1cccc(C)c1N(CC(=O)NCCC(=O)O)C(=O)c1ccc(Cl)cc1 [Serial No. 7, N-[N-(p-chlorobenzoyl)-2-(2,6-dimethylanilino)acetyl]-3-aminopropionic acid] | 450 mg/kg | ≤ 1 mg/kg | ≥ 450 | 45 | 10 mg/kg | – |
| COc1ccc(N(CC(=O)N(CCCC(=O)O)c2ccc(OC)cc2)C(C)=O)cc1 [Serial No. 8, N-[N-acetyl-2-(p-anisidino)acetyl]-4-(p-anisidino)butyric acid] | 1200 mg/kg | 1 mg/kg | 1200 | – | – | – |
| COc1ccc(N(CCCC(=O)O)C(=O)CN(C(=O)c2ccc(Cl)cc2)c2ccc(OC)cc2)cc1 [Serial No. 9, N-[N-(p-chlorobenzoyl)-2-(p-anisidino)acetyl]-4-(p-anisidino)butyric acid] | 420 mg/kg | 3 mg/kg | 140 | – | – | – |
| COc1ccc(N(CCCC(=O)O)C(=O)CCN(C(=O)c2ccc(Cl)cc2)c2ccc(OC)cc2)cc1 [Serial No. 10, N-[N-(p-chlorobenzoyl)-3-(p-anisidino)propionyl]-4-(p-anisidino)butyric acid] | 220 mg/kg | ~1 mg/kg | ~220 | – | – | – |
| Cc1cccc(C)c1N(CCCC(=O)O)C(=O)CCCN(C(=O)c1ccc(Cl)cc1)c1c(C)cccc1C [Serial No. 11, N-[N-(p-chlorobenzoyl)-4-(2,6-dimethylanilino)butyryl]-4-(2,6-dimethylanilino)butyric acid] | 130 mg/kg | 1 mg/kg | 130 | 43 | 3 mg/kg | – |
| COc1ccc(N(CCCC(=O)N(CCCC(=O)O)c2c(C)cccc2C)C(=O)c2ccc(Cl)cc2)cc1 [Serial No. 12, N-[N-(p-chlorobenzoyl)-4-(p-anisidino)butyryl]-4-(2,6-dimethylanilino)butyric acid] | 800 mg/kg | 2 mg/kg | 400 | 57 | 14 mg/kg | – |
| COc1ccc(N(CCCC(=O)O)C(=O)CCCN(C(=O)c2ccc(Cl)cc2)c2c(C)cccc2C)cc1 [Serial No. 13, N-[N-(p-chlorobenzoyl)-4-(2,6-dimethylanilino)butyryl]-4-(p-anisidino)butyric acid] | 150 mg/kg | 0.8 mg/kg | 188 | – | – | – |
| Cc1cccc(C)c1N(CCCC(=O)NCCCC(=O)O)C(=O)c1ccc(Cl)cc1 [Serial No. 14, N-[N-(p-chlorobenzoyl)-4-(2,6-dimethylanilino)butyryl]-4-aminobutyric acid] | 400 mg/kg | 0.4 mg/kg | 1000 | – | – | – |
| COc1cc(C(=O)N(CCCC(=O)NCCCC(=O)O)c2c(C)cccc2C)cc(OC)c1OC [Serial No. 15, N-[N-(3,4,5-trimethoxybenzoyl)-4-(2,6-dimethylanilino)butyryl]-4-aminobutyric acid] | 800 mg/kg | ~1 mg/kg | ~800 | – | – | – |
| COc1ccc(N(CCCC(=O)O)C(=O)C(C)N(C(C)=O)c2ccc(OC)cc2)cc1 (centres unmarked) [Serial No. 16, N-[N-acetyl-2-(p-anisidino)propionyl]-4-(p-anisidino)butyric acid] | 600 mg/kg | – | – | 60 | 10 mg/kg | – |
| COc1ccc(N(CCCC(=O)O)C(=O)C(C)N(C(=O)c2ccco2)c2ccc(OC)cc2)cc1 (centres unmarked) [Serial No. 17, N-[N-(2-furoyl)-2-(p-anisidino)propionyl]-4-(p-anisidino)butyric acid] | 750 mg/kg | 5 mg/kg | 150 | 68 | 11 mg/kg | – |
| COc1ccc(N(CCCC(=O)O)C(=O)C(C)N(C(=O)c2ccc(Cl)cc2)c2ccc(OC)cc2)cc1 (centres unmarked) [Serial No. 18, N-[N-(p-chlorobenzoyl)-2-(p-anisidino)propionyl]-4-(p-anisidino)butyric acid] | ≤ 250 mg/kg | 5 mg/kg | ≤ 50 | ≤ 36 | 7 mg/kg | ≤ 250 mg/kg |
| COc1ccc(N(CCCC(=O)O)C(=O)CCN(C(C)=O)c2c(C)cccc2C)cc1 [Serial No. 20, N-[N-acetyl-3-(2,6-dimethylanilino)propionyl]-4-(p-anisidino)butyric acid] | 600 mg/kg | 7 mg/kg | 86 | 86 | 7 mg/kg | – |
| CCc1cccc(CC)c1N(CCCC(=O)O)C(=O)CCN(C(C)=O)c1c(C)cccc1C [Serial No. 21, N-[N-acetyl-3-(2,6-dimethylanilino)propionyl]-4-(2,6-diethylanilino)butyric acid] | 280 mg/kg | – | – | ~280 | ~1 mg/kg | – |
| CCc1cccc(C)c1N(CCCC(=O)O)C(=O)CCN(C(C)=O)c1c(C)cccc1C [Serial No. 22, N-[N-acetyl-3-(2,6-dimethylanilino)propionyl]-4-(2-ethyl-6-methylanilino)butyric acid] | 430 mg/kg | 3 mg/kg | 143 | 331 | 1.3 mg/kg | – |
| COc1ccc(N(CCCC(=O)O)C(=O)[C@H](CCSC)NC(=O)c2ccc(Cl)cc2)cc1 [Serial No. 23, N-[N-(p-chlorobenzoyl)methionyl]-4-(p-anisidino)butyric acid] | 700 mg/kg | – | – | 280 | 2.5 mg/kg | – |
| COc1ccc(C(=O)N[C@@H](Cc2ccccc2)C(=O)N(CCCC(=O)O)c2ccc(OC)cc2)cc1 [Serial No. 24, N-[N-(p-methoxybenzoyl)phenylalanyl]-4-(p-anisidino)butyric acid] | 300 mg/kg | 6 mg/kg | 50 | 50 | 6 mg/kg | – |
| COc1ccc(N(CCCC(=O)O)C(=O)CCN(C(=O)c2ccc(Cl)cc2)c2c(C)cccc2C)cc1 [Serial No. 25, N-[N-(p-chlorobenzoyl)-3-(2,6-dimethylanilino)propionyl]-4-(p-anisidino)butyric acid] | 60 mg/kg | – | – | ~60 | ~1 mg/kg | – |
